Assay [1] deals with p70S6K (Homo sapiens, UniProt P23443). As to the kind of experiment: Luciferase-coupled chemiluminescence kinase assay (ATP consumption). It counts as biochemical. The procedure, abridged: (§1)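 Enzyme at 2.5-5 nM was preincubated 30 min at room temperature with compound in Tris pH 7.5, MgCl2, TX-100, DTT, then reacted with ATP for 3 h at ambient temperature. Remaining ATP was quantified by luciferase-luciferin chemiluminescence, with consumption kept at 25-60%; […].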

For assay [2], the target named is AktK (Homo sapiens, UniProt P31749). Described as above. It counts as biochemical. To be noted: read-out: AKT-1 IC50. Put shortly:
as §1

Like-named read-outs stand apart in the source and are kept apart here.

The IC50 is the concentration that gives 50% inhibition.

Chain of p70S6K (P23443 whole entry): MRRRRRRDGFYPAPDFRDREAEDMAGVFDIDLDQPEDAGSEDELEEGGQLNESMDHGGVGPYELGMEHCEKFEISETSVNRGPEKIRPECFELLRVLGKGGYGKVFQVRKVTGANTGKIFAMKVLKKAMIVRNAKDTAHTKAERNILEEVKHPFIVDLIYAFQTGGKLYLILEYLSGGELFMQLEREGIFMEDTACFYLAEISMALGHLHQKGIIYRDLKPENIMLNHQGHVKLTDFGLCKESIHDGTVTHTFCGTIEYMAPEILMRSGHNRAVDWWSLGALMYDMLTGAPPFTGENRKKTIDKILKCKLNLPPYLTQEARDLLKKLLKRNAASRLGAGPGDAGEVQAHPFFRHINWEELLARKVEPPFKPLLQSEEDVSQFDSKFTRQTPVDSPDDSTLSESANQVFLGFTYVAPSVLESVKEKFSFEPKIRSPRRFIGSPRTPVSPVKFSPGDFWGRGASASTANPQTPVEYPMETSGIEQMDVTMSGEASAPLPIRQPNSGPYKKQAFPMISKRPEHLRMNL
Chain of AktK (P31749 whole entry): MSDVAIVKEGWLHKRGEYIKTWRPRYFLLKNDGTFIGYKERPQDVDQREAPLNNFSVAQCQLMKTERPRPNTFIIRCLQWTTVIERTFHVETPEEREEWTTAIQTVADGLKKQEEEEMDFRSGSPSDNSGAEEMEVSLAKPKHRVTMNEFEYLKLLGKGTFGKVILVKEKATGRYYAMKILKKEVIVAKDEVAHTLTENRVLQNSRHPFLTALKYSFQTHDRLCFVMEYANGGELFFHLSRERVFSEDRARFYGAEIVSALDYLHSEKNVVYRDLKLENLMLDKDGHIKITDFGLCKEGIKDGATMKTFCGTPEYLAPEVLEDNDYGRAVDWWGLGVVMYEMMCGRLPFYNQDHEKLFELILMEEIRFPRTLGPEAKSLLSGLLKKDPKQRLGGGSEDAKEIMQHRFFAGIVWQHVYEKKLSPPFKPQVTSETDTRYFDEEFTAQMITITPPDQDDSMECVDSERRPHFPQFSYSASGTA

In the case of `CCc1n[nH]c2ncnc(N3CCN(c4cccc(Cl)c4)C(C(=O)NC4CCN(C)CC4)C3)c12` (centres unmarked) [Entry 382, 1-(3-chlorophenyl)-4-(3-ethyl-1H-pyrazolo[3,4-d]pyrimidin-4-yl)-N-(1-methylpiperidin-4-yl)piperazine-2-carboxamide], the concentration for half-maximal inhibition (IC50) was 1000 to 10000 nM in assay [1] and at least 10000 nM in assay [2].
With `CCc1n[nH]c2ncnc(N3CCN(c4cccc(Cl)c4)C(C(=O)NCCN4CCOCC4)C3)c12` (centres unmarked) [Entry 383, 1-(3-chlorophenyl)-4-(3-ethyl-1H-pyrazolo[3,4-d]pyrimidin-4-yl)-N-(2-morpholin-4-ylethyl)piperazine-2-carboxamide], the IC50 is 1000 to 10000 nM in assay [1] and at least 10000 nM in assay [2].
In the case of `CCc1n[nH]c2ncnc(N3CCN(c4cc(Cl)cc(OCCN(C)C)c4OC)CC3)c12` [Entry 384, 2-{[5-chloro-3-[4-(3-ethyl-1H-pyrazolo[3,4-d]pyrimidin-4-yl)piperazin-1-yl]-2-(methyloxy)phenyl]oxy}-N,N-dimethylethanamine], the IC50 in assay [1] was below 100 nM; in assay [2], 1000 to 10000 nM.
Consider `CCc1n[nH]c2ncnc(N3CCN(c4cc(Cl)cc(C#CCN(C)C)c4C)CC3)c12` [Entry 385, 3-{5-chloro-3-[4-(3-ethyl-1H-pyrazolo[3,4-d]pyrimidin-4-yl)piperazin-1-yl]-2-methylphenyl}-N,N-dimethylprop-2-yn-1-amine], for which the half-inhibitory concentration (IC50) in assay [1] is below 100 nM; in assay [2] it was 1000 to 10000 nM.
The like results for `CCc1n[nH]c2ncnc(N3CCN(c4cc(Cl)cc(NCCN(C)C)c4C)CC3)c12` [Entry 386, N′-{5-chloro-3-[4-(3-ethyl-1H-pyrazolo[3,4-d]pyrimidin-4-yl)piperazin-1-yl]-2-methylphenyl}-N,N-dimethylethane-1,2-diamine] were, in that order, below 100 nM and 100 to 1000 nM.
In the same order, the values of `Cc1ccc(Cl)cc1N1CCN(c2ncnc3[nH]nc(/C=C/C(=O)OC(C)(C)C)c23)CC1` [Entry 387, 1,1-dimethylethyl (2E)-3-{4-[4-(5-chloro-2-methylphenyl)piperazin-1-yl]-1H-pyrazolo[3,4-d]pyrimidin-3-yl}prop-2-enoate] are 100 to 1000 nM and 1000 to 10000 nM.
In the same order, the values of `CCc1n[nH]c2ncnc(N3CCN(c4cc(Cl)c(OCCCN(C)C)cc4C)CC3)c12` [Entry 388, 3-({2-chloro-4-[4-(3-ethyl-1H-pyrazolo[3,4-d]pyrimidin-4-yl)piperazin-1-yl]-5-methylphenyl}oxy)-N,N-dimethylpropan-1-amine] are 100 to 1000 nM and 1000 to 10000 nM.
On to `CCc1n[nH]c2ncnc(N3CCN(c4cc(Cl)c(OCCN(C)C)cc4C)CC3)c12` [Entry 389, 2-({2-chloro-4-[4-(3-ethyl-1H-pyrazolo[3,4-d]pyrimidin-4-yl)piperazin-1-yl]-5-methylphenyl}oxy)-N,N-dimethylethanamine], for which the IC50 in assay [1] was 100 to 1000 nM; in assay [2], 1000 to 10000 nM.
For the compound `CCc1n[nH]c2ncnc(N3CCN(c4cc(Cl)c(OC)cc4C)CC3)c12` [Entry 390, 4-{4-[5-chloro-2-methyl-4-(methyloxy)phenyl]piperazin-1-yl}-3-ethyl-1H-pyrazolo[3,4-d]pyrimidine], the IC50 in assay [1] was below 100 nM; in assay [2], 1000 to 10000 nM.
In the same order, the values of `Cc1ccc(Cl)cc1N1CCN(c2ncnc3[nH]nc(N4CCN(C)CC4)c23)CC1` [Entry 391, 4-[4-(5-chloro-2-methylphenyl)piperazin-1-yl]-3-(4-methylpiperazin-1-yl)-1H-pyrazolo[3,4-d]pyrimidine] are 1000 to 10000 nM and 1000 to 10000 nM.
In the case of `CCN(CC)CC#Cc1n[nH]c2ncnc(N3CCN(c4cc(Cl)ccc4C)CC3)c12` [Entry 392, 3-{4-[4-(5-chloro-2-methylphenyl)piperazin-1-yl]-1H-pyrazolo[3,4-d]pyrimidin-3-yl}-N,N-diethylprop-2-yn-1-amine], the IC50 in assay [1] is below 100 nM; in assay [2], 1000 to 10000 nM.
The like results for `Cc1ccc(Cl)cc1N1CCN(c2ncnc3[nH]nc(C#CCO)c23)CC1` [Entry 393, 3-{4-[4-(5-chloro-2-methylphenyl)piperazin-1-yl]-1H-pyrazolo[3,4-d]pyrimidin-3-yl}prop-2-yn-1-ol] were, in that order, below 100 nM and 100 to 1000 nM.
Turning to `Cc1ccc(Cl)cc1N1CCN(c2ncnc3[nH]nc(CC4CCNCC4)c23)CC1` [Entry 394, 4-[4-(5-chloro-2-methylphenyl)piperazin-1-yl]-3-(piperidin-4-ylmethyl)-1H-pyrazolo[3,4-d]pyrimidine], the concentration for half-maximal inhibition (IC50) in assay [1] and in assay [2] was 1000 to 10000 nM in each case.
With `Cc1ccc(Cl)cc1N1CCN(c2ncnc3[nH]nc(C=C4C[C@@H]5CN(C(=O)OCc6ccccc6)C[C@@H]5C4)c23)CC1` [Entry 395, phenylmethyl (3aR,6aS)-5-({4-[4-(5-chloro-2-methylphenyl)piperazin-1-yl]-1H-pyrazolo[3,4-d]pyrimidin-3-yl}methylidene)hexahydrocyclo-penta[c]pyrrole-2(1H)-carboxylate], the half-inhibitory concentration (IC50) in assay [1] and in assay [2] was 1000 to 10000 nM throughout.
`Cc1ccc(Cl)cc1N1CCN(c2ncnc3[nH]nc(/C=C4/C[C@H]5CNC[C@H]5C4)c23)CC1` [Entry 396, 4-[4-(5-chloro-2-methylphenyl)piperazin-1-yl]-3-[(E)-(3aR,6aS)-hexahydrocyclopenta[c]pyrrol-5(1H)-ylidenemethyl]-1H-pyrazolo[3,4-d]pyrimidine]: the IC50 in assay [1] and in assay [2] was 1000 to 10000 nM each time.
For `Cc1ccc(Cl)cc1N1CCN(c2ncnc3[nH]nc(C#CCN4CCCC4)c23)CC1` [Entry 397, 4-[4-(5-chloro-2-methylphenyl)piperazin-1-yl]-3-(3-pyrrolidin-1-ylprop-1-yn-1-yl)-1H-pyrazolo[3,4-d]pyrimidine], the half-maximal inhibitory concentration (IC50) in assay [1] fell in the range of 100 to 1000 nM; in assay [2] it was 1000 to 10000 nM.
For `Cc1ccc(Cl)cc1N1CCN(c2ncnc3[nH]nc(C#CCN4CCN(C)CC4)c23)CC1` [Entry 398, 4-[4-(5-chloro-2-methylphenyl)piperazin-1-yl]-3-[3-(4-methylpiperazin-1-yl)prop-1-yn-1-yl]-1H-pyrazolo[3,4-d]pyrimidine], the IC50 lay in the range of 100 to 1000 nM in assay [1] and 1000 to 10000 nM in assay [2].
In the same order, the values of `CCN(CC)CCCc1n[nH]c2ncnc(N3CCN(c4cc(Cl)ccc4C)CC3)c12` [Entry 399, 3-{4-[4-(5-chloro-2-methylphenyl)piperazin-1-yl]-1H-pyrazolo[3,4-d]pyrimidin-3-yl}-N,N-diethylpropan-1-amine] are 1000 to 10000 nM and 1000 to 10000 nM.
`Cc1ccc(Cl)cc1N1CCN(c2ncnc3[nH]nc(C4=CCNCC4)c23)CC1` [Entry 401, 4-[4-(5-chloro-2-methylphenyl)piperazin-1-yl]-3-(1,2,3,6-tetrahydropyridin-4-yl)-1H-pyrazolo[3,4-d]pyrimidine]: the IC50 in assay [1] was below 100 nM; in assay [2], 1000 to 10000 nM.
For the compound `CCc1n[nH]c2ncnc(N3CCN(c4cc(Cl)cc(CCCN(CC)CC)c4C)CC3)c12` [Entry 402, 3-{5-chloro-3-[4-(3-ethyl-1H-pyrazolo[3,4-d]pyrimidin-4-yl)piperazin-1-yl]-2-methylphenyl}-N,N-diethylpropan-1-amine], the half-inhibitory concentration (IC50) in assay [1] was below 100 nM; in assay [2] it was 100 to 1000 nM.
Turning to `CCc1n[nH]c2ncnc(N3CCN(c4cc(Cl)cc(CCCN5CCCC5)c4C)CC3)c12` [Entry 403, 4-{4-[5-chloro-2-methyl-3-(3-pyrrolidin-1-ylpropyl)phenyl]piperazin-1-yl}-3-ethyl-1H-pyrazolo[3,4-d]pyrimidine], the IC50 in assay [1] is below 100 nM; in assay [2] it was 100 to 1000 nM.
In the case of “N′-{3-[4-(3-bromo-1H-pyrazolo[3,4-d]pyrimidin-4-yl)piperazin-1-yl]-2-methyl-5-[(2-methyl-propyl)oxy]phenyl}-N,N-diethylethane-1,2-diamine [Entry 185]”, the IC50 in assay [1] (Table 1, class symbols per key) was below 100 nM; in assay [2] (Table 1, class symbols per key), below 100 nM.

The values are drawn from patent publication US8076338B2, “Kinase modulators and methods of use” (Exelixis, Inc., priority 2004, dated 2011).
